# Experimental data: patent US7157453B2, “Urea substituted imidazoquinolines” (3M Innovation Properties Company, priority 1999, dated 2007)
# Legend:
# interferon (α) = test: Cytokine Induction in Human Cells: interferon (α) by ELISA; format: cell-based; conditions: PBMC; human PBMCs, incubated 18 to 24 hours, lowest concentration found to induce interferon
# Excerpt: (§1) An in vitro human blood cell system was used to assess cytokine induction by compounds of the invention. Activity is based on the measurement of interferon and tumor necrosis factor (α) (IFN and TNF, respectively) secreted into culture media as described by Testerman et. al. In “Cytokine Induction by the Immunomodulators Imiquimod and S-27609”, Journal of Leukocyte Biology, 58, 365–372 (September, 1995).
# (§2) Whole blood is collected by venipuncture into EDTA vacutainer tubes from healthy human donors. Peripheral blood mononuclear cells (PBMCs) are separated from whole blood by density gradient centrifugation using Histopaque®-1077 (Sigma Chemicals, St. Louis, Mo.). The PBMCs are suspended at 3–4×10^6 cells/mL in RPMI 1640 medium containing 10% fetal bovine serum, 2 mM L-glutamine and 1% penicillin/streptomycin solution (RPMI complete). The PBMC suspension is added to 48 well flat bottom sterile tissue culture plates (Costar, Cambridge, Mass. or Becton Dickinson Labware, Lincoln Park, N.J.) containing an equal volume of RPMI complete media containing test compound.
# (§3) The compounds are solubilized in dimethyl sulfoxide (DMSO). The DMSO concentration should not exceed a final concentration of 1% for addition to the culture wells.
# (§4) The solution of test compound is added at 60 μM to the first well containing RPMI complete and serial (three fold or ten fold) dilutions are made. The PBMC suspension is then added to the wells in an equal volume, bringing the test compound concentrations to the desired range. The final concentration of PBMC suspension is 1.5–2×10^6 cells/mL. The plates are covered with sterile plastic lids, mixed gently and then incubated for 18 to 24 hours at 37° C. in a 5% carbon dioxide atmosphere.
# (§5) Following incubation the plates are centrifuged for 5–10 minutes at 1000 rpm (˜200×g) at 4° C. The cell culture supernatant is removed with a sterile polypropylene pipet and transferred to sterile polypropylene tubes. Samples are maintained at −30 to −70° C. until analysis. The samples are analyzed for interferon (α) and tumor necrosis factor (α) by ELISA
# Interferon (α) concentration is determined by ELISA using a Human Multi-Species kit from PBL Biomedical Laboratories, New Brunswick, N.J.
# (§6) The table below lists the lowest concentration found to induce interferon and the lowest concentration found to induce tumor necrosis factor for each compound.
# [1] = test system: tumor necrosis factor (α); test: Cytokine Induction in Human Cells: tumor necrosis factor (α) by ELISA; format: cell-based; conditions: PBMC; human PBMCs, incubated 18 to 24 hours, lowest concentration found to induce tumor necrosis factor
# Excerpt: as §1, §2, §3, §4, §5
# Tumor necrosis factor (α) (TNF) concentration is determined using ELISA kits available from Genzyme, Cambridge, Mass.; R&D Systems, Minneapolis, Minn.; or Pharmingen, San Diego, Calif.
# as §6
Structure (SMILES),minimal effective concentration (interferon (α)) [µM],minimal effective concentration [1] [µM]
"Nc1nc2ccccc2c2c1ncn2CCCCNC(=O)OCC1c2ccccc2-c2ccccc21 [Example 4, 9H-9-Fluorenylmethyl N-[4-(4-amino-1H-imidazo[4,5-c]quinolin-1-yl)butyl]carbamate]",> 30,> 30
Nc1nc2ccccc2c2c1ncn2CCCCNC(=O)Nc1ccccc1 [Example 16],1.11,10
Nc1nc2ccccc2c2c1ncn2CCCCNC(=O)Nc1ccc([N+](=O)[O-])cc1 [Example 17],> 30,30
CC(C)NC(=O)NCCCCn1cnc2c(N)nc3ccccc3c21 [Example 19],1.11,30
CC(C)(C)NC(=O)NCCCCn1cnc2c(N)nc3ccccc3c21 [Example 20],1.11,30
CCCCOc1ccc(NC(=O)NCCCCn2cnc3c(N)nc4ccccc4c32)cc1 [Example 21],> 30,> 30
CCCCCCCNC(=O)NCCCCn1cnc2c(N)nc3ccccc3c21 [Example 22],> 30,10
Nc1nc2ccccc2c2c1ncn2CCCCNC(=O)Nc1cc(C(F)(F)F)cc(C(F)(F)F)c1 [Example 23],> 30,10
CC(C)c1cccc(C(C)C)c1NC(=O)NCCCCn1cnc2c(N)nc3ccccc3c21 [Example 24],> 30,> 30
CCCCCCNC(=O)NCCCCn1cnc2c(N)nc3ccccc3c21 [Example 25],3.33,> 30
CCCNC(=O)NCCCCn1cnc2c(N)nc3ccccc3c21 [Example 26],10,> 30
CC(C)c1ccc(NC(=O)NCCCCn2cnc3c(N)nc4ccccc4c32)cc1 [Example 27],> 30,> 30
N#Cc1cccc(NC(=O)NCCCCn2cnc3c(N)nc4ccccc4c32)c1 [Example 28],1.11,3.33
Nc1nc2ccccc2c2c1ncn2CCCCNC(=O)Nc1cc(Cl)cc(Cl)c1 [Example 29],> 30,10
CCCCCNC(=O)NCCCCn1cnc2c(N)nc3ccccc3c21 [Example 30],3.33,30
Nc1nc2ccccc2c2c1ncn2CCCCNC(=O)Nc1cc(C(F)(F)F)ccc1Cl [Example 31],> 30,10
CC(C)(C)CC(C)(C)NC(=O)NCCCCn1cnc2c(N)nc3ccccc3c21 [Example 32],10,10
Nc1nc2ccccc2c2c1ncn2CCCCNC(=O)Nc1ccc(Oc2ccccc2)cc1 [Example 33],> 30,> 30
CCCCc1ccc(NC(=O)NCCCCn2cnc3c(N)nc4ccccc4c32)cc1 [Example 34],> 30,> 30
Nc1nc2ccccc2c2c1ncn2CCCCNC(=O)NCc1ccccc1 [Example 35],1.11,10
Nc1nc2ccccc2c2c1ncn2CCCCNC(=O)NCCc1ccccc1 [Example 36],1.11,10
COc1ccc(NC(=O)NCCCCn2cnc3c(N)nc4ccccc4c32)cc1 [Example 37],1.11,10
Cc1cc(C)c(NC(=O)NCCCCn2cnc3c(N)nc4ccccc4c32)cc1C [Example 38],> 30,> 30
Nc1nc2ccccc2c2c1ncn2CCCCNC(=O)NC1CCCCC1 [Example 39],1.11,10
CCc1ccccc1NC(=O)NCCCCn1cnc2c(N)nc3ccccc3c21 [Example 40],0.37,3.33
